# Test results taken from the supplement of paper PMC10307832.
# Compound: CC[C@@H]1C(=O)N(C)c2cnc(Nc3ccc(C(=O)NC4CCN(C)CC4)cc3OC)nc2N1C1CCCC1 [BI-2536] + CC(=O)c1c(C)c2cnc(Nc3ccc(N4CCNCC4)cn3)nc2n(C2CCCC2)c1=O [Palbociclib] (partner 0.5 µM)
# Assay: relative viability (nuclei count vs DMSO), 5 days (fraction); higher = more cells survive
# Details: first compound 0.01 µM
# Summary of the method: (§1)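 The day after seeding in 1536-well plates, lung cancer cell lines were treated by pin tool with a single drug, or with a fixed anchor-drug dose together with five library-drug doses (not always all listed) in √10 steps. After 5 days, a combined fix-and-stain solution (final 0.05% Triton X-100, 1% formaldehyde, 1 ug/ml Hoechst) was added. Nuclei counted on 4× images gave relative viability as treated counts over vehicle counts, reported as the median of duplicate plates.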
row,Cell Line,relative viability
1,NCI-H522,1
2,NCI-H727,0.708
3,NCI-H1650,0.382
4,NCI-H1993,0.623
5,SW 1573,0.347
6,NCI-H838,0.214
7,LCLC-103H,0.473
8,NCI-H520,0.225
9,NCI-H2126,0.324
10,EMC-BAC-2,0.514
11,NCI-H2085,0.489
12,HCC-366,0.364
13,NCI-H1666,0.701
14,LK-2,0.586
15,NCI-H2087,0.225
16,SK-MES-1,0.345
17,H3255,0.341
18,COR-L23,0.298
19,COR-L 105,0.422
20,LOU-NH91,0.477
21,ChaGo-K-1,0.908

row,Cell Line,relative viability
1,NCI-H2170,0.379
2,NCI-H2405,0.514
3,HOP-62,0.421
4,HCC-44,1.05
5,SW 900,0.549
6,LU99A,0.37
7,BEN,0.481
8,HARA,0.265
9,NCI-H1648,0.288
10,HCC-78,0.566
11,NCI-H322M,0.503
12,LCLC-97TM1,0.225
13,NCI-H2009,0.195
14,A-427,0.519
15,NCI-H441,0.201
16,NCI-H661,0.403
17,NCI-H1734,0.358
18,NCI-H460,0.264
19,NCI-H2347,0.471
20,SK-LU-1,0.328
21,NCI-H1395,0.574

row,Cell Line,relative viability
1,201T,0.367
2,NCI-H1915,0.424
3,HCC-827,0.467
4,LXF-289,0.612
5,NCI-H23,0.465
6,NCI-H647,0.265
7,CAL-12T,0.431
8,NCI-H1651,0.5
9,EPLC-272H,0.293
10,NCI-H2228,0.749
11,NCI-H1792,0.72
12,NCI-H1355,0.415
13,NCI-H3122,0.191
14,NCI-H1437,0.332
15,NCI-H1755,0.473
16,NCI-H2023,0.382
17,HCC-15,0.704
18,NCI-H1793,0.328
19,PC-14,0.458

# Same assay, conditions: first compound 0.03162 µM
row,Cell Line,relative viability
1,NCI-H522,0.922
2,NCI-H727,0.613
3,NCI-H1650,0.282
4,NCI-H1993,0.714
5,SW 1573,0.237
6,NCI-H838,0.202
7,LCLC-103H,0.508
8,NCI-H520,0.216
9,NCI-H2126,0.368
10,EMC-BAC-2,0.502
11,NCI-H2085,0.446
12,HCC-366,0.389
13,NCI-H1666,0.575
14,LK-2,0.525
15,NCI-H2087,0.189
16,NCI-H2342,0.553
17,SK-MES-1,0.301
18,H3255,0.299
19,COR-L23,0.242
20,COR-L 105,0.392
21,LOU-NH91,0.51

row,Cell Line,relative viability
1,ChaGo-K-1,0.845
2,NCI-H2170,0.437
3,NCI-H2405,0.509
4,HOP-62,0.409
5,HCC-44,0.959
6,SW 900,0.487
7,LU99A,0.445
8,BEN,0.506
9,HARA,0.346
10,NCI-H1648,0.131
11,HCC-78,0.475
12,NCI-H322M,0.436
13,LCLC-97TM1,0.203
14,NCI-H2009,0.171
15,A-427,0.498
16,NCI-H441,0.203
17,NCI-H661,0.372
18,NCI-H1734,0.349
19,NCI-H460,0.15
20,NCI-H2347,0.426
21,SK-LU-1,0.419

row,Cell Line,relative viability
1,NCI-H1395,0.516
2,201T,0.344
3,NCI-H1915,0.546
4,HCC-827,0.435
5,LXF-289,0.583
6,NCI-H23,0.528
7,NCI-H647,0.473
8,CAL-12T,0.351
9,NCI-H1651,0.505
10,EPLC-272H,0.315
11,NCI-H2228,0.618
12,NCI-H1792,0.706
13,NCI-H1355,0.405
14,NCI-H3122,0.175
15,NCI-H1437,0.281
16,NCI-H1755,0.477
17,NCI-H2023,0.348
18,HCC-15,0.66
19,NCI-H1793,0.34
20,PC-14,0.489

# Same assay, conditions: first compound 0.1 µM
row,Cell Line,relative viability
1,NCI-H522,1.13
2,NCI-H727,0.701
3,NCI-H1650,0.188
4,NCI-H1993,0.5
5,SW 1573,0.172
6,NCI-H838,0.199
7,LCLC-103H,0.421
8,NCI-H520,0.182
9,NCI-H2126,0.352
10,EMC-BAC-2,0.455
11,NCI-H2085,0.409
12,HCC-366,0.225
13,NCI-H1666,0.642
14,LK-2,0.464
15,NCI-H2087,0.203
16,NCI-H2342,0.542
17,SK-MES-1,0.187
18,H3255,0.314
19,COR-L23,0.139
20,COR-L 105,0.353
21,LOU-NH91,0.472

row,Cell Line,relative viability
1,ChaGo-K-1,0.785
2,NCI-H2170,0.363
3,NCI-H2405,0.359
4,HOP-62,0.443
5,HCC-44,0.947
6,SW 900,0.471
7,LU99A,0.318
8,BEN,0.455
9,HARA,0.295
10,NCI-H1648,0.251
11,HCC-78,0.431
12,NCI-H322M,0.462
13,LCLC-97TM1,0.144
14,NCI-H2009,0.119
15,A-427,0.453
16,NCI-H441,0.183
17,NCI-H661,0.331
18,NCI-H1734,0.256
19,NCI-H460,0.14
20,NCI-H2347,0.369
21,SK-LU-1,0.323

row,Cell Line,relative viability
1,NCI-H1395,0.339
2,201T,0.347
3,NCI-H1915,0.426
4,HCC-827,0.467
5,LXF-289,0.587
6,NCI-H23,0.304
7,NCI-H647,0.266
8,CAL-12T,0.249
9,NCI-H1651,0.514
10,EPLC-272H,0.234
11,NCI-H2228,0.232
12,NCI-H1792,0.76
13,NCI-H1355,0.385
14,NCI-H3122,0.171
15,NCI-H1437,0.273
16,NCI-H1755,0.424
17,NCI-H2023,0.168
18,HCC-15,0.547
19,NCI-H1793,0.276
20,PC-14,0.0853

# Same assay, conditions: first compound 0.3162 µM
row,Cell Line,relative viability
1,NCI-H522,0.4
2,NCI-H727,0.615
3,NCI-H1650,0.129
4,NCI-H1993,0.468
5,SW 1573,0.116
6,NCI-H838,0.0979
7,LCLC-103H,0.371
8,NCI-H520,0.178
9,NCI-H2126,0.276
10,EMC-BAC-2,0.257
11,NCI-H2085,0.287
12,HCC-366,0.0306
13,NCI-H1666,0.505
14,LK-2,0.15
15,NCI-H2087,0.0781
16,NCI-H2342,0.394
17,SK-MES-1,0.222
18,H3255,0.248
19,COR-L23,0.117
20,COR-L 105,0.297
21,LOU-NH91,0.331

row,Cell Line,relative viability
1,ChaGo-K-1,0.187
2,NCI-H2170,0.155
3,NCI-H2405,0.284
4,HOP-62,0.17
5,HCC-44,0.404
6,SW 900,0.313
7,LU99A,0.152
8,BEN,0.401
9,HARA,0.151
10,NCI-H1648,0.229
11,HCC-78,0.436
12,NCI-H322M,0.447
13,LCLC-97TM1,0.107
14,NCI-H2009,0.142
15,A-427,0.219
16,NCI-H441,0.132
17,NCI-H661,0.209
18,NCI-H1734,0.203
19,NCI-H460,0.0134
20,NCI-H2347,0.385
21,SK-LU-1,0.202

row,Cell Line,relative viability
1,NCI-H1395,0.347
2,201T,0.314
3,NCI-H1915,0.0999
4,HCC-827,0.267
5,LXF-289,0.116
6,NCI-H23,0.146
7,NCI-H647,0.0799
8,CAL-12T,0.127
9,NCI-H1651,0.41
10,EPLC-272H,0.168
11,NCI-H2228,0.157
12,NCI-H1792,0.349
13,NCI-H1355,0.171
14,NCI-H3122,0.132
15,NCI-H1437,0.159
16,NCI-H1755,0.377
17,NCI-H2023,0.102
18,HCC-15,0.17
19,NCI-H1793,0.168
20,PC-14,0.0424

# Same assay, conditions: first compound 1 µM
row,Cell Line,relative viability
1,NCI-H522,0.303
2,NCI-H727,0.437
3,NCI-H1650,0.145
4,NCI-H1993,0.427
5,SW 1573,0.0925
6,NCI-H838,0.0994
7,LCLC-103H,0.294
8,NCI-H520,0.178
9,NCI-H2126,0.232
10,EMC-BAC-2,0.297
11,NCI-H2085,0.301
12,HCC-366,0.0265
13,NCI-H1666,0.467
14,LK-2,0.106
15,NCI-H2087,0.118
16,NCI-H2342,0.397
17,SK-MES-1,0.208
18,H3255,0.259
19,COR-L23,0.127
20,COR-L 105,0.351
21,LOU-NH91,0.317

row,Cell Line,relative viability
1,ChaGo-K-1,0.188
2,NCI-H2170,0.16
3,NCI-H2405,0.349
4,HOP-62,0.143
5,HCC-44,0.312
6,SW 900,0.219
7,LU99A,0.147
8,BEN,0.366
9,HARA,0.136
10,NCI-H1648,0.29
11,HCC-78,0.318
12,NCI-H322M,0.395
13,LCLC-97TM1,0.0769
14,NCI-H2009,0.0906
15,A-427,0.203
16,NCI-H441,0.122
17,NCI-H661,0.225
18,NCI-H1734,0.192
19,NCI-H460,0.0152
20,NCI-H2347,0.387
21,SK-LU-1,0.221

row,Cell Line,relative viability
1,NCI-H1395,0.375
2,201T,0.287
3,NCI-H1915,0.0968
4,HCC-827,0.186
5,LXF-289,0.116
6,NCI-H23,0.111
7,NCI-H647,0.06
8,CAL-12T,0.132
9,NCI-H1651,0.0953
10,EPLC-272H,0.152
11,NCI-H2228,0.111
12,NCI-H1792,0.215
13,NCI-H1355,0.158
14,NCI-H3122,0.159
15,NCI-H1437,0.197
16,NCI-H1755,0.385
17,NCI-H2023,0.0824
18,HCC-15,0.144
19,NCI-H1793,0.154
20,PC-14,0.0288

# Compound: CC[C@@H]1C(=O)N(C)c2cnc(Nc3ccc(C(=O)NC4CCN(C)CC4)cc3OC)nc2N1C1CCCC1 [BI-2536] + O=C(c1cc(Cc2n[nH]c(=O)c3ccccc23)ccc1F)N1CCN(C(=O)C2CC2)CC1 [Olaparib] (partner 8 µM)
# Assay: as above
# Details: first compound 0.01 µM
# Summary of the method: as §1
row,Cell Line,relative viability
1,NCI-H522,0.655
2,NCI-H727,0.589
3,NCI-H1650,0.866
4,EBC-1,0.616
5,NCI-H1703,0.426
6,NCI-H1993,1.04
7,SW 1573,0.446
8,NCI-H838,0.731
9,LCLC-103H,0.742
10,NCI-H520,0.284
11,NCI-H2126,0.968
12,EMC-BAC-2,0.463
13,NCI-H2085,0.786
14,Calu-6,0.533
15,HCC-366,0.323
16,NCI-H1666,0.76
17,NCI-H596,0.731
